What is called IC50 is the concentration at which inhibition is half-maximal.

These results are taken from patent US20160060260A1, “BROMODOMAIN INHIBITORS FOR TREATING DISEASE” (Board of Regents, The University of Texas System, priority 2014, published 2016).

Each structure is given as a SMILES string. Bounds are passed on as bounds.

In this assay the target is T1, Recombinant human His-tagged Trim24-PHD-bromodomain (Homo sapiens, UniProt O15164).
T1 construct: Recombinant human His-tagged Trim24-PHD-bromodomain (produced in-house); made in house
T1 sequence (O15164 824-1006 limits assumed): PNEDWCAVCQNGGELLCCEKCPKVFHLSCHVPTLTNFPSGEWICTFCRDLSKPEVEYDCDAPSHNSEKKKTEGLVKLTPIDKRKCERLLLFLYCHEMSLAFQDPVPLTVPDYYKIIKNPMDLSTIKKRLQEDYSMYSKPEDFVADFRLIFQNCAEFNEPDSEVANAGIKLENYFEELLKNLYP
Put plainly: Trim24 AlphaScreen Assay. It counts as binding. The conditions noted are these: 5 nM Trim24 protein, 15 nM biotinylated H3K23ac (1-33aa) peptide. An outline of the steps: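 His-tagged Trim24-PHD-bromodomain, biotinylated H3K23ac (1-33aa) peptide and compound incubated 1 h at room temperature in 50 mM Hepes pH 7.5, 100 mM NaCl, 0.12 mM Triton X-100.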
On the technique in general: In Alpha technology, singlet oxygen from a donor bead excites a nearby acceptor bead.
Consider `CCCOc1cc(OCCCOC)cc(Oc2cc3c(cc2NS(=O)(=O)c2cn(C)nc2C)n(C)c(=O)n3C)c1` [Example 206, N-(6-(3-(3-methoxypropoxy)-5-propoxyphenoxy)-1,3-dimethyl-2-oxo-2,3-dihydro-1H-benzo[d]imidazol-5-yl)-1,3-dimethyl-1H-pyrazole-4-sulfonamide], for which the IC50 lay in the range of 10 to 100 nM.

Turning to `CCCOc1cc(OCCCCCCN)cc(Oc2cc3c(cc2NS(=O)(=O)C2CC2)n(C)c(=O)n3C)c1` [Example 218, N-(6-(3-((6-aminohexyl)oxy)-5-propoxyphenoxy)-1,3-dimethyl-2-oxo-2,3-dihydro-1H-benzo[d]imidazol-5-yl)cyclopropanesulfonamide], the IC50 is 10 to 100 nM.

Consider `Cc1nc(S(=O)(=O)Nc2cc3c(cc2Oc2cccc(OCCC(C)C)c2)n(C)c(=O)n3C)cn1C` [Example 4, N-(6-(3-(isopentyloxy)phenoxy)-1,3-dimethyl-2-oxo-2,3-dihydro-1H-benzo[d]imidazol-5-yl)-1,2-dimethyl-1H-imidazole-4-sulfonamide], for which the IC50 lay within 100 to 1000 nM.

As to `COc1ccc(S(=O)(=O)Nc2cc3c(cc2Oc2cccc(OCc4ccccc4)c2)n(C)c(=O)n3C)cc1` [Example 17, N-(6-(3-(benzyloxy)phenoxy)-1,3-dimethyl-2-oxo-2,3-dihydro-1H-benzo[d]imidazol-5-yl)-4-methoxybenzenesulfonamide], the IC50 was 100 to 1000 nM.

With `CC(C)COc1cccc(Oc2cc3c(cc2NS(=O)(=O)c2cnn(C)c2)n(C)c(=O)n3C)c1` [Example 60, N-(6-(3-isobutoxyphenoxy)-1,3-dimethyl-2-oxo-2,3-dihydro-1H-benzo[d]imidazol-5-yl)-1-methyl-1H-pyrazole-4-sulfonamide], the 50% inhibitory concentration (IC50) was 10 to 100 nM.

Turning to `CCCOc1cc(OCCCCCCN)cc(Oc2cc3c(cc2N(C)S(=O)(=O)c2ccc(OC)c(OC)c2)n(C)c(=O)n3C)c1` [Example 245, N-(6-(3-((6-aminohexyl)oxy)-5-propoxyphenoxy)-1,3-dimethyl-2-oxo-2,3-dihydro-1H-benzo[d]imidazol-5-yl)-3,4-dimethoxy-N-methylbenzenesulfonamide], the IC50 is 100 to 1000 nM.

As for `CC(C)COc1cc(Cl)cc(Oc2cc3c(cc2NS(=O)(=O)c2cn(C)cn2)n(C)c(=O)n3C)c1` [Example 223, N-(6-(3-chloro-5-isobutoxyphenoxy)-1,3-dimethyl-2-oxo-2,3-dihydro-1H-benzo[d]imidazol-5-yl)-1-methyl-1H-imidazole-4-sulfonamide], the IC50 is 10 to 100 nM.

`CC(CO)COc1cccc(Oc2cc3c(cc2NS(=O)(=O)c2cn(C)cn2)n(C)c(=O)n3C)c1` (stereo not drawn) [Example 230, N-(6-(3-(3-hydroxy-2-methylpropoxy)phenoxy)-1,3-dimethyl-2-oxo-2,3-dihydro-1H-benzo[d]imidazol-5-yl)-1-methyl-1H-imidazole-4-sulfonamide]: the IC50 fell in the range of 100 to 1000 nM.

In the case of `COc1cc(OC)cc(S(=O)(=O)Nc2cc3c(cc2Oc2cccc(OCc4ccccc4)c2)n(C)c(=O)n3C)c1` [Example 44, N-(6-(3-(benzyloxy)phenoxy)-1,3-dimethyl-2-oxo-2,3-dihydro-1H-benzo[d]imidazol-5-yl)-3,5-dimethoxybenzenesulfonamide], the 50% inhibitory concentration (IC50) was 100 to 1000 nM.

With `COCCCOc1cc(C#N)cc(Oc2cc3c(cc2NS(=O)(=O)c2ccn(C)n2)n(C)c(=O)n3C)c1` [Example 121, N-(6-(3-cyano-5-(3-methoxypropoxy)phenoxy)-1,3-dimethyl-2-oxo-2,3-dihydro-1H-benzo[d]imidazol-5-yl)-1-methyl-1H-pyrazole-3-sulfonamide], the IC50 is 100 to 1000 nM.

Regarding `COc1ccc(S(=O)(=O)Nc2cc3c(cc2Oc2cccc(OCC(F)(F)F)c2)n(C)c(=O)n3C)cc1OC` [Example 184, N-(1,3-dimethyl-2-oxo-6-(3-(2,2,2-trifluoroethoxy)phenoxy)-2,3-dihydro-1H-benzo[d]imidazol-5-yl)-3,4-dimethoxybenzenesulfonamide], the IC50 was in the range of 10 to 100 nM.

For the compound `Cc1nn(C)cc1S(=O)(=O)Nc1cc2c(cc1Oc1cccc(OCc3ccccc3)c1)n(C)c(=O)n2C` [Example 23, N-(6-(3-(benzyloxy)phenoxy)-1,3-dimethyl-2-oxo-2,3-dihydro-1H-benzo[d]imidazol-5-yl)-1,3-dimethyl-1H-pyrazole-4-sulfonamide], the IC50 was in the range of 100 to 1000 nM.

On to `CCCOc1cc(OCCCOC)cc(Oc2cc3c(cc2NS(=O)(=O)c2cn(C)c(C)n2)n(C)c(=O)n3C)c1` [Example 94, N-(6-(3-(3-methoxypropoxy)-5-propoxyphenoxy)-1,3-dimethyl-2-oxo-2,3-dihydro-1H-benzo[d]imidazol-5-yl)-1,2-dimethyl-1H-imidazole-4-sulfonamide], for which the half-maximal inhibitory concentration (IC50) fell in the range of 10 to 100 nM.

With `CC(COC(=O)CNC(=O)OC(C)(C)C)COc1cccc(Oc2cc3c(cc2NS(=O)(=O)c2cn(C)cn2)n(C)c(=O)n3C)c1` (stereo not drawn) [Example 239, 3-(3-{[1,3-dimethyl-6-(1-methyl-1H-imidazole-4-sulfonamido)-2-oxo-2,3-dihydro-1H-1,3-benzodiazol-5-yl]oxy}phenoxy)-2-methylpropyl 2-{[(tert-butoxy)carbonyl]amino}acetate], the IC50 was in the range of 100 to 1000 nM.

As for `CCCOc1cc(OCCCCCCNC(=O)OC(C)(C)C)cc(Oc2cc3c(cc2NS(=O)(=O)c2cn(C)cn2)n(C)c(=O)n3C)c1` [Example 119, tert-butyl (6-(3-((1,3-dimethyl-6-((1-methyl-1H-imidazole)-4-sulfonamido)-2-oxo-2,3-dihydro-1H-benzo[d]imidazol-5-yl)oxy)-5-propoxyphenoxy)hexyl)carbamate], the 50% inhibitory concentration (IC50) fell in the range of 100 to 1000 nM.

Take `COc1ccc(S(=O)(=O)Nc2cc3c(cc2Oc2cccc(OCc4ccncc4)c2)n(C)c(=O)n3C)cc1OC` [Example 31, N-(1,3-dimethyl-2-oxo-6-(3-(pyridin-4-ylmethoxy)phenoxy)-2,3-dihydro-1H-benzo[d]imidazol-5-yl)-3,4-dimethoxybenzenesulfonamide]: the 50% inhibitory concentration (IC50) was 100 to 1000 nM.

Regarding `Cc1c(S(=O)(=O)Nc2cc3c(cc2Oc2cc(OCCCCCCN(C)C)cc(OCC(F)(F)F)c2)n(C)c(=O)n3C)cnn1C` [Example 215, N-(6-(3-((6-(dimethylamino)hexyl)oxy)-5-(2,2,2-trifluoroethoxy)phenoxy)-1,3-dimethyl-2-oxo-2-3,-dihydro-1H-benzo[d]imidazol-5-yl)-1,5-dimethyl-1H-pyrazole-4-sulfonamide], the IC50 lay in the range of 1 to 10 nM.

Regarding `CCCOc1cc(OCCCOC)cc(Oc2cc3c(cc2NS(=O)(=O)c2ccccc2)n(C)c(=O)n3C)c1` [Example 163, N-(6-(3-(3-methoxypropoxy)-5-propoxyphenoxy)-1,3-dimethyl-2-oxo-2,3-dihydro-1H-benzo[d]imidazol-5-yl)benzenesulfonamide], the IC50 is 100 to 1000 nM.

With `CCCOc1cc(C#N)cc(Oc2cc3c(cc2NS(=O)(=O)c2ccc(OC)c(OC)c2)n(C)c(=O)n3C)c1` [Example 109, N-(6-(3-cyano-5-propoxyphenoxy)-1,3-dimethyl-2-oxo-2,3-dihydro-1H-benzo[d]imidazol-5-yl)-3,4-dimethoxybenzenesulfonamide], the IC50 was in the range of 10 to 100 nM.

`COc1ccc(S(=O)(=O)Nc2cc3c(cc2Oc2cc(OCCCCCCN)cc(OCC(F)(F)F)c2)n(C)c(=O)n3C)cc1OC` [Example 194, N-(6-(3-((6-aminohexyl)oxy)-5-(2,2,2-trifluoroethoxy)phenoxy)-1,3-dimethyl-2-oxo-2,3-dihydro-1H-benzo[d]imidazol-5-yl)-3,4-dimethoxybenzenesulfonamide]: the IC50 fell in the range of 10 to 100 nM.

Turning to `Cn1ccnc1S(=O)(=O)Nc1cc2c(cc1Oc1cccc(OCc3ccccc3)c1)n(C)c(=O)n2C` [Example 80, N-(6-(3-(benzyloxy)phenoxy)-1,3-dimethyl-2-oxo-2,3-dihydro-1H-benzo[d]imidazol-5-yl)-1-methyl-1H-imidazole-2-sulfonamide], the IC50 was > 1000 nM.
